US12692232B2, “Indole carboxamide compound, preparation therefor and use thereof” (NANJING RUISHUNING MEDICAL TECHNOLOGY CO., LTD., priority 2021, dated 2026)

Molecular target: T1, TRPC7 protein (Homo sapiens, UniProt Q9HCX4)
T1 sequence (Q9HCX4 1-862): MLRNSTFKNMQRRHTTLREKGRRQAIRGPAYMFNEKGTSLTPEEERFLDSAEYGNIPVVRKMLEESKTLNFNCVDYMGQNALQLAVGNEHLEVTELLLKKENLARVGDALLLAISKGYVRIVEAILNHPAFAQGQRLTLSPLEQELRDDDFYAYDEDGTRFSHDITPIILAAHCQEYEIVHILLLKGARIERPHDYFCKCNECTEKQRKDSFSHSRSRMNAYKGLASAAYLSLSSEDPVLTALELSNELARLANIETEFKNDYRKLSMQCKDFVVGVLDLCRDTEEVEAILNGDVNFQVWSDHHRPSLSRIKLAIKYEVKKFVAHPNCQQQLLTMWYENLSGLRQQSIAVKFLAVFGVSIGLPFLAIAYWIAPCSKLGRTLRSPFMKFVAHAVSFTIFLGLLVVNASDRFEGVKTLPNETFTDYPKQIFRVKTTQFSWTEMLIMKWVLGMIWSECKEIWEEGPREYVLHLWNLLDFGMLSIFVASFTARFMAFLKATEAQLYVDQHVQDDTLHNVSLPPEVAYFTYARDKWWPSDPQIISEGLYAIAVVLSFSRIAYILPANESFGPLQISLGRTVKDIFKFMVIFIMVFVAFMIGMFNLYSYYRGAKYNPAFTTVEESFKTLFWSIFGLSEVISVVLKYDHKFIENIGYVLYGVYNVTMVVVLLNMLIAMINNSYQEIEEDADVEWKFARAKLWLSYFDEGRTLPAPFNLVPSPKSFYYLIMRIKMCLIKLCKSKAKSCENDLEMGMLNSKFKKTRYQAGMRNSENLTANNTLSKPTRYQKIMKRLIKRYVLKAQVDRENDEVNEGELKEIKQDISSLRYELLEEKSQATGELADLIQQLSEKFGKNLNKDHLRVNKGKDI
Test: MST binding to TRPC7 protein
Conditions: for Kd: MST; for affinity strength to TRPC6 protein higher than to TRPC7 protein: MST Kd ratio
Procedure: Preparation and labelling of protein solution: TRPC6 protein dry powder (Alomone Labs, Israel) was prepared into a protein mother solution at a concentration of 10 μM using PBS-Buffer, and 35 μL of the protein stock solution was taken to the Buffer exchange A column, and centrifuged to obtain the Tris-removed protein. 34 μL Labelling Buffer was added to the Tris-removed protein according to the instructions of the Protein Fluorescent Labelling Kit (model L001). After mixing well, 3 μL of NT-647-NHS fluorescent dye was added and thus obtained mixture was incubated for 20 minutes. The protein-dye mixture was transferred to the purification B column, 300 μL of PBS-Buffer was added, and the target protein, i.e. fluorescent labelled protein TRPC6, was collected by centrifugation (with a final concentration of about 2 μM). 180 μL of target protein was mixed with 1620 μL of PBS-Buffer, and then 9 μl of Tween-20 were added thereto. Thus the resulting mixture was mixed and then centrifuged to obtain the target protein solution.
Preparation of compound solutions: the compounds were prepared separately with DMSO to storage solutions with a concentration of […]. 10 μL of each storage solution was placed in a […] EP tube, 90 μL of PBS was added thereto and the resulting mixture was thoroughly mixed to prepare 100 μL of working solution at a concentration of 1 μM for later use. Ligand gradient dilutions were made for a total of 16 concentrations, and 10 μL of 10% DMSO-Buffer was added to each of the 15 gradients except gradient 1, followed by the addition of 10 μL of ligand working solution to gradients 1 and 2, respectively. The liquid in tube 2 was mixed and then 10 μL therein was taken into tube 3, and dilution was carried out in this manner until tube 16. Tube 16 was mixed and 10 μL therein was taken and discarded, and the remainder was kept for later use.
Detection and analysis: 10 μL of protein solution was added to the 16 compound gradient dilutions respectively and mixed, and the resultant mixtures were transferred to capillary tubes sequentially to start detection on machine. After loading the data, the MST analysis model and Kd Model were selected to obtain the fitting curve and dissociation constant (Kd).
The binding ability of the compounds of the present invention (as exemplified by the compounds 1-1 and 2-1 obtained in Examples 1 and 3) for other TRPC proteins (e.g., TRPC1, TRPC3, TRPC4, TRPC5, and TRPC7) was determined using the microscale thermophoresis (MST) method. The method was as follows:
The affinity of the compounds of the present invention with TRPC1, TRPC3, TRPC4, TRPC5 and TRPC7 proteins, respectively, was determined by the same method as in Example 5.

Compound	Kd	affinity strength to TRPC6 protein higher than to TRPC7 protein
Cn1c(C(=O)NCCC(=O)O)cc2ccccc21 [3-[(1-methyl-1H-indole-2-carbonyl)amino]propionic acid, reference compound]	1.04 µM	35 fold
CC(=O)OCCCNC(=O)c1c(C=O)c2ccccc2n1C [compound 1-1, propyl 3-[(3-formyl-1-methyl-1H-indole-2-carbonyl)amino]acetate]	3.04 µM	254 fold
Cn1c(C(=O)NCCCOC(=O)c2ccccc2)c(C=O)c2ccccc21 [compound 2-1]	3.21 µM	160 fold
